# Measurements published in patent publication US20110200686A1, “COMPOSITIONS OF MODULATORS OF THE WNT/B-CATENIN PATHWAY AND AN N-CINNAMYL-N'BENZHYDRYL PIPERAZINE AND THEIR USE IN TREATING NEOPLASTIC CONDITIONS INCLUDING MALIGNANT MELANOMA” (UNIVERSITY OG WASHINGTON, priority 2008, published 2011).
# Legend:
# Wnt/β-catenin pathway [1] = details: positive control, known from Zhang et al. 2007; cited from earlier work
# Wnt/β-catenin pathway [2] = experiment: Wnt/β-catenin-responsive (TCF/LEF) luciferase reporter assay in melanoma cells; type: cell-based, human
# Method: (§1) Wnt3a conditioned media was collected from sub-confluent melanoma cell lines, and this media was tested for its ability to activate Wnt/β-catenin signaling in UACC 1273 melanoma cells that were stably transduced with a Wnt/β-catenin-responsive firefly luciferase reporter and a constitutive Renilla luciferase gene used for normalization (Cignal TCF/LEF transcriptional reporter construct; SABiosciences, Frederick, Md.). Conditioned media was spun down to clear cell debris and then incubated with reporter cells overnight. Activation of the Wnt/β-catenin reporter was measured using a DLR assay kit (Promega; Madison, Wis.).
# (§2) Flunarizine and QS11 were solubilized in dimethyl-sulfoxide (DMSO) vehicle, which was used as a control (vol/vol) for the described experiments. Drug incubations were 24-48 hours in duration.
# A TCF/LEF transcriptional reporter gene cell line used to monitor the activation of the Wnt signal transduction pathway was utilized in a high throughput screen of a library of chemical compounds to identify compounds that synergize with lithium in activating the Wnt/β-catenin pathway.
# human melanoma cells = experiment: Proliferation of human melanoma cells measured by Renilla luciferase activity; type: cell-based; details: flunarizine 1 μM alone, FIG. 5
# Method: as §1, §2
# GSK-3 = details: cited from earlier work; for selectivity for GSK-3: literature values
# B16 melanoma cells = experiment: Cell proliferation assay, B16 murine melanoma cells; type: cell-based; details: NaCl 20 mM, negative control, FIG. 3B
# Method: For cell counts by hematocytometer, cells were plated at a uniform density (usually between 10,000 to 25,000 cells per well) in a 12 or 24 well tissue culture plate in the appropriate media supplemented with 2% FBS. Cells were then incubated at 37° C. at 5% CO2 for three to seven days based on individual cell doubling time. At the end of the timecourse, cells were trypsinized, resuspended in the appropriate media, and counted using a standard hematocytometer. Dead cells were identified by 0.4% Trypan Blue stain. Cell proliferation experiments were performed with a minimum of six biologic replicates. […] For relative cell proliferation assays of B16:GFP cells incubated with lithium chloride or sodium chloride, cell proliferation was measured by relative firefly luciferase units (Promega; Madison, Wis.).
smiles,measurement,setting,value
OC[C@H](Cc1ccccc1)Nc1nc(Oc2ccc3c(c2)CCC3)nc2c1ncn2Cc1ccc(-c2ccccc2)cc1 [QS11],synergy with Wnt-3a in activating the Wnt pathway,Wnt/β-catenin pathway [1],act synergistically with Wnt-3a to activate the Wnt pathway
"Fc1ccc(C(c2ccc(F)cc2)N2CCN(CC=Cc3ccccc3)CC2)cc1 [flunarizine, 1-[bis(4-fluorophenyl)methyl]-4-cinnamyl-piperazine]",activation of Wnt-responsive reporter together with Wnt-3a conditioned media,"Wnt/β-catenin pathway [2]; flunarizine 1 μM, human melanoma cells, FIG. 6",synergizes with Wnt-3a conditioned media to activate a Wnt-responsive reporter
same,enhancement of lithium-induced activation of the TCF/LEF reporter gene,"Wnt/β-catenin pathway [2]; flunarizine with lithium, FIG. 4",~100 fold
same,proliferation of human melanoma cells (Renilla luciferase activity),human melanoma cells,inhibited
O=[N+]([O-])c1ccc(NCCNc2ncc(-c3ncc[nH]3)c(-c3ccc(Cl)cc3Cl)n2)nc1 [CHIR-837],selectivity for GSK-3,GSK-3,"> 5,000 fold"
"[Cl-].[Na+] [NaCl, Sodium chloride]",effect on B16 melanoma cell growth,B16 melanoma cells,no effect on cell growth
